Patent US20120245224A1, “CANNABINOIDS FOR USE IN THE TREATMENT OF NEUROPATHIC PAIN” (GW Pharma Limited, priority 2006, published 2012)

Legend:
[1] = tested on: mechanical allodynia after chronic constriction injury (CCI) to the sciatic nerve; assay: Acute administration, mechanical allodynia (Dynamic Plantar Aesthesiometer) in CCI rats; format: in vivo, rat; conditions: for Withdrawal threshold: CCI rats 14 days after injury, THC 0.42 mg/kg, CBD 10 mg/kg; for mean pain relieving effect of the test article when compared to the vehicle as a percentage, Mechanical Allodynia: mean over the test period
Experimental: (§1) Painful neuropathy was induced in male Wistar rats weighing 200-220 g (Harlan, Italy). Animals were anaesthetized with sodium pentobarbital (60 mg kg^−1 i.p.) and submitted to a surgical procedure to induce neuropathic pain according to Bennet & Xie (1988).
(§2) This procedure was a chronic constriction injury (CCI) to the sciatic nerve, this was achieved by exposing the common sciatic nerve at the level of the mid thigh and, proximal to the sciatic nerves trifurcation, four ligatures were loosely tied around it with about 1 mm spacing so that the epineural circulation was preserved.
(§3) Sham animals (sciatic exposure without ligation) were used as controls.
(§4) The compounds tested were a cannabinoid-containing plant extract which contained a ratio of CBD:THC of approximately 24:1. From Table 1 this could also be described as a “CBD-containing plant extract”. The extract comprised CBD at a concentration of 10 mg/kg and THC at a concentration of 0.42 mg/kg. Pure cannabinoids CBD (at a concentration of 10 mg/kg) and THC (at a concentration of 0.42 mg/kg) were also used as test articles for comparison to the cannabinoid-containing plant extract.
(§5) The test compounds were dissolved in a 1:1:18 mixture of ethanol, cremophor and saline.
(§6) The acute administration of compounds was evaluated in rats treated with vehicle for one week and subsequently provided with the test article prior to the behavioural evaluations. The behavioural evaluations were performed at different times (between 30 min to 24 hours).
(§7) Mechanical allodynia was assessed using the Dynamic Plantar Aesthesiometer (Ugo Basile, Varese, Italy). Particularly, animals were placed in a test cage with a wire mesh floor, and the tip of von Frey-type filament was applied to the middle of the plantar surface of the hind paw. The filament exerted an increasing force starting below the threshold of detection and increasing until the animal removed its paw. Withdrawal threshold was expressed as tolerance level in g.
Table 3 below details the data produced by the acute administration of the vehicle to the sham animals or administration of vehicle or test article to animals with CCI, 14 days after the injury occurred.

[2] = tested on: thermal hyperalgesia after chronic constriction injury (CCI) to the sciatic nerve; assay: Repeated administration, thermal hyperalgesia (Hargreaves plantar test) in CCI rats; format: in vivo, rat; conditions: for difference between the pain relieving values before and after treatment, Thermal Hyperalgesia: day 14 minus day 7
Experimental: as §1, §2, §3, §4, §5
(§8) In the repeated administration study the rats received the test compounds or the vehicle orally once a day for seven days, starting from the seventh day after the surgical procedure.
(§9) The animals pain response was monitored (i) before surgery, (ii) on day 7 (before starting the treatment) and (iii) on day 14 (24 hours after the last administration of the test article).
(§10) Thermal hyperalgesia was tested according to the Hargreaves procedure (Hargreaves et al., 1988) using the plantar test (Ugo Basile, Varese, Italy).
(§11) Briefly, animals were placed in a clear plexiglass box and allowed to acclimatise. A constant intensity radiant heat source was aimed at the midplantar area of the hind paw. The time, in seconds, from initial heat source activation until paw withdrawal was recorded.
(§12) Table 4 below details the data produced by the repeated administration of the vehicle to the sham animals or administration of vehicle or test article to animals with CCI. Test article or vehicle was administered 7 days after the chronic constriction injury was applied and was administered once a day for a further seven days.

[3] = tested on: neuropathic pain model of chronic constriction injury of the rat sciatic nerve; conditions: purified compound; thermal and mechanical hyperalgesia and mechanical allodynia; cited from earlier work
[4] = tested on: thermal hyperalgesia after chronic constriction injury (CCI) to the sciatic nerve; assay: Acute administration, thermal hyperalgesia (Hargreaves plantar test) in CCI rats; format: in vivo, rat; conditions: for Withdrawal latency: CCI rats 14 days after injury, THC 0.42 mg/kg, CBD 10 mg/kg; for mean pain relieving effect of the test article when compared to the vehicle as a percentage, Thermal Hyperalgesia: mean over the test period
Experimental: as §1, §2, §3, §4, §5, §6, §10, §11
Table 2 below details the data produced by the acute administration of the vehicle to the sham animals or administration of vehicle or test article to animals with CCI, 14 days after the injury occurred.

[5] = tested on: mechanical allodynia after chronic constriction injury (CCI) to the sciatic nerve; assay: Repeated administration, mechanical allodynia (Dynamic Plantar Aesthesiometer) in CCI rats; format: in vivo, rat; conditions: for difference between the pain relieving values before and after treatment, Mechanical Allodynia: day 14 minus day 7
Experimental: as §1, §2, §3, §4, §5, §8, §9, §7
as §12, with “5” for “4”

[6] = tested on: patients taking carbamezepine; conditions: cited from earlier work
[7] = day 0 (prior to CCI), baseline of the treatment group
[8] = day 7 after CCI (before drug treatment), baseline of the treatment group
[9] = day 14 after CCI (after 7 days of drug treatment, orally once a day; THC 0.42 mg/kg, CBD 10 mg/kg)
[10] = repeated administration, 7 days

Row | SMILES | Withdrawal threshold ([1]; 30 min after administration) [g] | Withdrawal threshold ([1]; 60 min after administration) [g] | Withdrawal threshold ([1]; 90 min after administration) [g] | Withdrawal threshold ([1]; 120 min after administration) [g] | Withdrawal threshold ([1]; 150 min after administration) [g] | Withdrawal threshold ([1]; 180 min after administration) [g] | mean pain relieving effect of the test article when compared to the vehicle as a percentage, Mechanical Allodynia [1] [%] | Withdrawal latency [2, 7] [s] | Withdrawal latency [2, 8] [s] | Withdrawal latency [2, 9] [s] | difference between the pain relieving values before and after treatment, Thermal Hyperalgesia ([2]; repeated administration) [s] | pain relieving effect (in words), thermal hyperalgesia [4] | Withdrawal latency ([4]; 30 min after administration) [s] | Withdrawal latency ([4]; 60 min after administration) [s] | Withdrawal latency ([4]; 90 min after administration) [s] | Withdrawal latency ([4]; 120 min after administration) [s] | Withdrawal latency ([4]; 150 min after administration) [s] | Withdrawal latency ([4]; 180 min after administration) [s] | mean pain relieving effect of the test article when compared to the vehicle as a percentage, Thermal Hyperalgesia [4] [%] | Withdrawal threshold [5, 7] [g] | other results
1 | C=C(C)[C@@H]1CCC(C)=C[C@H]1c1c(O)cc(CCCCC)cc1O [CBD, cannabidiol] | 10 | 10 | 11 | 10 | 10 | 10 | −13 | 10.4 | 5.5 | 8.7 | 3.2 | did not produce any pain relieving effects | 5.4 | 5.4 | 5.4 | 5.3 | 5.4 | 5.3 | −4 | 34 | pain relieving effect (in words), mechanical allodynia [1]: did not produce any pain relieving effects; relief of neuropathic pain (in words) [3]: can partially relieve neuropathic pain; Withdrawal threshold [5, 8]: 15 g; Withdrawal threshold [5, 9]: 19 g; difference between the pain relieving values before and after treatment, Mechanical Allodynia ([5]; repeated administration): 4 g
2 | NC(=O)N1c2ccccc2C=Cc2ccccc21 [carbamezepine] | – | – | – | – | – | – | – | – | – | – | – | – | – | – | – | – | – | – | – | – | increase in the risk of blood dyscrasias ([6]; post-marketing studies, patients taking carbamezepine): five- to eight-fold increase; patients with a 25% decrease in their white blood cell count ([6]; usually reverses within the first 4 months of therapy): 7%
3 | CCCCCc1cc(O)c2c(c1)OC(C)(C)[C@@H]1CCC(C)=C[C@@H]21 [THC, delta-9-tetrahydrocannabinol] | 12 | 9 | 15 | 21 | 13 | 10 | 14 | 9.8 | 5.8 | 4.8 | -1.0 | increased the withdrawal latency over that of the vehicle treated animals | 11.0 | 10.2 | 9.8 | 6.0 | 5.0 | 5.3 | 47 | 31 | peak withdrawal threshold ([1]; peak after 120 minutes): 20 g; pain relieving effect (in words), thermal hyperalgesia [2, 10]: did not result in any pain relieving effect; Withdrawal threshold [5, 8]: 12 g; Withdrawal threshold [5, 9]: 10 g; pain relieving effect (in words), mechanical allodynia [5, 10]: did not result in any pain relieving effect; difference between the pain relieving values before and after treatment, Mechanical Allodynia ([5]; repeated administration): -2 g
